Reference: PubChem BioAssay (NCI)
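Dose response: 5 concentrations. Exposure: 48 h. Format: 96-well plates. Endpoint: linear interpolation; highest concentration if not reached. GI50 is the concentration that inhibits growth by half. TGI denotes the concentration required for complete inhibition of growth.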

Assays:
Test in all cases: inhibition of tumour cell growth, NCI panel, 48 h
[1] = system: HL-60(TB) leukemia
[2] = system: SK-MEL-28 melanoma
[3] = system: OVCAR-3 ovarian
[4] = system: CCRF-CEM leukemia
[5] = system: NCI-H23 lung
[6] = system: OVCAR-5 ovarian
[7] = system: SNB-75 CNS
[8] = system: CAKI-1 renal
[9] = system: UACC-257 melanoma
[10] = system: MALME-3M melanoma

Row | SMILES | GI50 [1] [µM] | TGI [1] [µM] | GI50 [2] [µM] | TGI [2] [µM] | GI50 [3] [µM] | TGI [3] [µM] | GI50 [4] [µM] | TGI [4] [µM] | GI50 [5] [µM] | TGI [5] [µM] | GI50 [6] [µM] | TGI [6] [µM] | GI50 [7] [µM] | TGI [7] [µM] | GI50 [8] [µM] | TGI [8] [µM] | GI50 [9] [µM] | TGI [9] [µM] | TGI [10] [µM] | GI50 [10] [µM]
1 | CC(C)(C)c1nc(-c2cccc(NS(=O)(=O)c3c(F)cccc3F)c2F)c(-c2ccnc(N)n2)s1 | 4.68 | 37.4 | < 0.01 | > 100 | 35.6 | > 100 | 21.7 | > 86.2 | 10.3 | 98.6 | 12.3 | > 100 | – | – | – | – | – | – | – | –
2 | CC/C(Cc1ccccc1)=C(/c1ccc(O)cc1)c1ccc(OCCN2CCCC2)cc1 | 1.9 | 3.84 | 1.72 | 3.42 | 1.82 | 3.46 | 1.83 | 4.16 | 1.72 | 3.53 | 1.86 | 3.93 | 1.31 | 2.98 | 1.65 | 3.52 | 2.14 | 3.89 | – | –
3 | O=c1[nH]c(=O)n(C2CC(O)C(CO)O2)cc1COCC(F)(F)F (stereo not drawn) | – | > 100 | – | – | – | > 100 | – | > 100 | – | > 100 | – | > 100 | – | > 100 | – | > 100 | – | > 100 | > 100 | –
4 | CCC[CH2][Sn]([CH2]CCC)([CH2]CCC)[O]C(=O)C(OC)c1ccccc1 (stereo not drawn) | 0.0418 | 0.256 | 0.137 | 0.27 | 0.0845 | 0.213 | – | – | 0.0499 | 0.179 | 0.0371 | 0.183 | 0.0824 | 0.513 | 0.115 | 0.238 | 0.0969 | 0.217 | 0.234 | 0.112
5 | CCC(=O)C(C(=O)CC)c1c(OC(=O)c2ccccc2)ccc(O)c1C(=O)OC | – | > 100 | – | > 100 | – | > 100 | – | > 100 | – | > 100 | – | > 100 | – | > 100 | – | > 100 | – | > 100 | – | –
6 | C=C(CO)CC(/C=C(\C)CC/C=C(\C)CCl)OC(C)=O (stereo not drawn) | – | > 100 | – | > 100 | – | > 100 | – | > 100 | – | > 100 | – | > 100 | – | > 100 | – | – | – | – | – | –
7 | O/N=C\C(=Nc1ccc(Cc2ccc(N=C(/C=N\O)NO)cc2)cc1)NO | – | 66.5 | – | > 100 | – | > 100 | – | > 100 | – | > 100 | – | > 100 | – | – | – | 69.2 | – | > 100 | > 100 | –
8 | C=Cc1c(C)c2cc3[nH]c(cc4nc(cc5nc(cc1[nH]2)C(C)=C5CCC(=O)N(CC)CC)C(CCC(=O)N(CC)CC)=C4C)c(C)c3C=C | – | > 100 | – | > 100 | – | > 100 | – | > 100 | – | > 100 | – | > 100 | – | 88.3 | – | – | – | > 100 | > 100 | –
9 | O=C(Oc1ccccc1)C(Br)C(Br)c1ccccc1 (stereo not drawn) | 3.13 | 15.9 | 2.64 | 7.11 | 1.72 | 3.14 | 1.39 | 6.68 | 7.2 | 24.3 | 7 | 20.8 | 15.7 | 30.1 | 1.65 | 3.06 | 2.06 | 4.8 | – | –
10 | CCOc1ccc(C(C)=O)cc1NC(=O)c1cccc(-c2nnn(CC)n2)c1 | – | – | 4.75 | > 100 | 0.377 | 5.89 | 0.937 | > 100 | 0.646 | 19 | 9.34 | > 100 | 0.209 | 12.7 | 0.939 | > 100 | – | – | 63.9 | 11.4
11 | COc1cc2c(c(OC)c1OC)-c1ccc(SC)c(=O)cc1C(CC(=O)Oc1cccc(F)c1)C2 (stereo not drawn) | – | 0.6 | – | > 100 | – | 0.305 | – | > 31.9 | – | 0.805 | – | > 100 | – | – | – | > 73.7 | – | > 100 | > 100 | –
12 | COc1ccc(-c2nc(N)c(C#N)c3c2CCOc2c-3ccc3ccccc23)cc1 | > 100 | > 100 | 12.1 | 79.1 | – | – | > 100 | > 100 | 19.4 | 61.9 | 62.2 | > 100 | > 100 | > 100 | 3.32 | 19.6 | 13.7 | 37.8 | 50.1 | 15.2
13 | Cc1ccc(O)c(NC2=C(Cl)C(=O)N(Cc3ccccc3)C2=O)c1 | – | – | 22.3 | 54.1 | 14.9 | 32.9 | 4.54 | 29 | 25.8 | 68.6 | 33.3 | 89.1 | – | – | 27.5 | 82.3 | – | – | 67.5 | 23
14 | COc1cc(NC(C)CCCNC(C)C)c2ncccc2c1OC (stereo not drawn) | 14.2 | 72.4 | > 100 | > 100 | 6.47 | 51 | – | – | > 100 | > 100 | > 100 | > 100 | 20.5 | > 100 | > 100 | > 100 | > 100 | > 100 | > 100 | 42.3
15 | CCC[CH2][Sn]([CH2]CCC)([O]C(=O)c1cccc(F)c1F)[O]C(=O)c1cccc(F)c1F | 0.42 | 2.4 | 0.933 | 2.13 | 1.37 | 2.68 | – | – | 0.614 | 1.89 | 1.88 | 3.28 | 0.874 | 2.1 | – | – | 1.09 | 2.28 | 1.89 | 0.585
16 | CCn1c(CSc2nc(-c3ccccc3)c(-c3ccccc3)[nH]2)n[nH]c1=S | – | > 100 | – | > 100 | – | > 100 | – | > 100 | – | > 100 | – | > 100 | – | > 100 | – | – | – | > 100 | > 100 | –
17 | Cc1cn2c(/C=N/N=C(N)N)c(-c3ccncc3)nc2s1 | 19.7 | 40.1 | – | – | 17.5 | 33.6 | 7.16 | 22.4 | 16.6 | 30.2 | 17.8 | 31.7 | – | – | > 100 | > 100 | 19.5 | 38.5 | – | –
